Reference: patent US6911443B2 (Bayer Aktiengesellschaft, priority 2000, dated 2005)

target: T1, human Syk (GST-Syk) (Homo sapiens, UniProt P43405); assay: Syk tyrosine kinase inhibitory assay; type: biochemical; conditions: Activity grade (IC50 class), in vitro; compounds as yielded by solid phase synthesis, purity about 40 to 90%
T1 construct: A cDNA fragment encoding human Syk openreading frame was cloned; made in house; host or cells: Sf21 insect cells (baculovirus, transfer vector pAcG2T)
Source text: [Syk Tyrosine Kinase Inhibitory Assay]
(1) Preparation of Syk Protein
A cDNA fragment encoding human Syk openreading frame was cloned from total RNA of human Burkitt's lymphoma B cell lines, Raji (American Type Culture Collection), with the use of RT-PCR method. The cDNA fragment was inserted into pAcG2T (Pharmingen, San Diego, Calif.) to construct a baculovirus transfer vector. Then the vector, together with the linearized baculovirus (BaculoGold™, Pharmingen), was used to transfect Sf21 cells (Invitrogen, San Diego, Calif.).
Generated recombinant baculovirus was cloned and amplified in Sf21 cells. Sf21 cells were infected with this amplified high titer virus to produce a chimeric protein of Syk kinase fused by glutathione-S-transferase (GST).
The resulting GST-Syk was purified with the use of glutathione column (Amersham Pharmacia Biotech AB, Uppsala, Sweden) according to the manufacturer's instruction.
(2) Synthesize of a Peptide
Next, a peptide fragment of 30 residues including two tyrosine residues, […], was synthesized by a peptide synthesizer. The N-terminal of the fragment was then biotinylated to obtain biotinylated activation loop peptide (AL).
(3) The Measurement of Syk Tyrosine Kinase Activity
All reagents were diluted with the Syk kinase assay buffer (50 mM Tris-HCl (pH 8.0), 10 mM MgCl2, 0.1 mM Na3VO4, 0.1% BSA, 1 mM DTT). First, a mixture (35 μl) including […] of GST-Syk and 0.5 μg of AL was put in each well in 96-well plates. Then 5 μl of a test compound in the presence of 2.5% dimethylsulfoxide (DMSO) was added to each well. To this mixture was added […] (10 μl) to initiate the kinase reaction. The final reaction mixture (50 μl) consists of 0.65 nM GST-Syk, 3 μM AL, 30 μM ATP, a test compound, 0.25% DMSO, and a Syk kinase assay buffer.
The mixture was incubated for 1 hr at room temperature, and the reaction was terminated by the addition of 120 μl of termination buffer (50 mM Tris-HCl (pH 8.0), 10 mMEDTA, 500 mM NaCl, 0.1% BSA). The mixture was transferred to streptavidin-coated plates and incubated for 30 min at room temperature to combine biotin-AL to the plates. After washing the plates with Tris-buffered saline (TBS) (50 mM Tris-HCl (pH 8.0), 138 mM NaCl, 2.7 mM KCl) containing 0.05% Tween-20 for 3 times, 100 μl of antibody solution consisting of 50 mM Tris-HCl (pH 8.0), 138 mM NaCl, 2.7 mM KCl, 1% BSA, 60 ng/ml anti-phosphotyrosine monoclonal antibody, 4G10 (Upstate Biotechnology), which is labeled with europium by Amersham Pharmacia's kit in advance, was added and incubated at room temperature for 60 min. After washing, 100 μl of enhancement solution (Amersham pharmacia Biotech) was added and then time-resolved fluorescence was measured by multi-label counter ARVO (Wallac Oy, Finland) at 340 nm for excitation and 615 nm for emission with 400 msec of delay and 400 msec of window.

SMILES	IC50 [nM]
CCSc1nc(-c2ccc(OC(=O)N(C)C)c(OC)c2)cc2nccn12 [Example 3-12]	2000 to 10000
CCSc1nc(-c2ccc(OC)c(OC(=O)N(C)C)c2)cc2nccn12 [Example 4-10]	500 to 2000

same assay, conditions: Table 17; IC50 classes; read-out: Activity grade

IC50 [nM]	SMILES
< 500	COc1ccc(-c2cc3nccn3c(Nc3ccccc3)n2)cc1NC(=O)CCC(=O)O [Example 2]
< 500	COc1ccc(-c2cc3nccn3c(Nc3ccccc3)n2)cc1NC(C)=O [Example 3]
< 500	COc1ccc(-c2cc3nccn3c(Nc3ccc(C(=O)NCC(O)CO)cc3)n2)cc1OC (stereo not drawn) [Example 5]
< 500	COc1ccc(-c2cc3nccn3c(Nc3ccc(C(=O)NCCCO)cc3)n2)cc1OC [Example 7]

same assay, conditions: in vitro; compounds as yielded by solid phase synthesis, purity about 40 to 90%

Activity grade (IC50 class)	SMILES
C-D	CCSc1nc(-c2ccc(S(N)(=O)=O)c(OC)c2)cc2nccn12 [Example 2-7]
C-D	CCOC(=O)CCNS(=O)(=O)c1ccc(-c2cc3nccn3c(SCC)n2)cc1OC [Example 2-11]

Further lines, the molecule ahead of its results:

SMILES	Activity grade (IC50 class)
CCSc1nc(-c2ccc(S(=O)(=O)N3CCOCC3)c(OC)c2)cc2nccn12 [Example 2-6]	C-D
CCSc1nc(-c2ccc(S(=O)(=O)NCCN(C)C)c(OC)c2)cc2nccn12 [Example 2-8]	C-D
CCSc1nc(-c2ccc(S(=O)(=O)N3CCN(C)CC3)c(OC)c2)cc2nccn12 [Example 2-9]	C-D
CCSc1nc(-c2ccc(S(=O)(=O)N3CCC(C(=O)O)CC3)c(OC)c2)cc2nccn12 [Example 2-10]	C-D
CCSc1nc(-c2ccc(F)c(F)c2)cc2nccn12 [Example 8-7]	C-D

same assay, conditions: in vitro; compounds as yielded by solid phase synthesis, purity about 40 to 90%; read-out: Activity grade (IC50 class)

IC50 [nM]	SMILES
< 500	CCSc1nc(-c2ccc(OC)c(S(=O)(=O)NCCO)c2)cc2nccn12 [Example 2-2]
< 500	CCOc1ccc(-c2cc3nccn3c(SCC)n2)cc1OC [Example 3-1]
< 500	C=CCOc1ccc(-c2cc3nccn3c(SCC)n2)cc1OC [Example 3-2]
< 500	CCSc1nc(-c2ccc(OCC3CCCCO3)c(OC)c2)cc2nccn12 (stereo not drawn) [Example 3-4]
< 500	CCSc1nc(-c2ccc(OC(C)C)c(OC)c2)cc2nccn12 [Example 3-5]
500 to 2000	CCSc1nc(-c2ccc(OC3CCCCC3)c(OC)c2)cc2nccn12 [Example 3-6]
< 500	CCSc1nc(-c2ccc(OC(C)=O)c(OC)c2)cc2nccn12 [Example 3-7]
500 to 2000	CCSc1nc(-c2ccc(OC(=O)C(C)C)c(OC)c2)cc2nccn12 [Example 3-8]
500 to 2000	CCSc1nc(-c2ccc(OS(C)(=O)=O)c(OC)c2)cc2nccn12 [Example 3-10]
< 500	CCSc1nc(-c2ccc(OC(=O)OC)c(OC)c2)cc2nccn12 [Example 3-11]
< 500	CCSc1nc(-c2ccc(OC)c(O)c2)cc2nccn12 [Example 4-2]
< 500	CCSc1nc(-c2ccc(OC)c(OC(C)C)c2)cc2nccn12 [Example 4-3]
500 to 2000	CCSc1nc(-c2ccc(OC)c(OC3CCCCC3)c2)cc2nccn12 [Example 4-4]
< 500	CCOCCOc1cc(-c2cc3nccn3c(SCC)n2)ccc1OC [Example 4-6]
< 500	CCSc1nc(-c2ccc(OC)c(OC(C)=O)c2)cc2nccn12 [Example 4-7]
500 to 2000	CCSc1nc(-c2ccc(OC)c(OS(C)(=O)=O)c2)cc2nccn12 [Example 4-9]
< 500	CCSc1nc(-c2ccc(OCCCN(C)CC)c(OC)c2)cc2nccn12 [Example 5-2]
< 500	CCSc1nc(-c2ccc(OCCCN(C)CCO)c(OC)c2)cc2nccn12 [Example 5-3]
< 500	CCOc1ccc(-c2cc3nccn3c(SCC)n2)cc1OCC [Example 6-1]
500 to 2000	CCSc1nc(-c2cccc(OC)c2)cc2nccn12 [Example 8-1]
2000 to 10000	CCSc1nc(-c2ccc([N+](=O)[O-])c(OC)c2)cc2nccn12 [Example 8-8]

The remaining lines, values behind:

SMILES	IC50 [nM]
CCSc1nc(-c2ccc(OC)c(OC)c2)cc2nc(C(=O)OC)cn12 [Example 1-1]	500 to 2000
CCSc1nc(-c2ccc(OC)nc2)cc2nccn12 [Example 1-2]	2000 to 10000
CCSc1nc(-c2ccc3c(c2)OCO3)cc2nccn12 [Example 1-3]	500 to 2000
CCSc1nc(-c2ccc(OC)cc2)cc2nccn12 [Example 1-5]	500 to 2000
CCSc1nc(-c2ccc3cc(OC)ccc3c2)cc2nccn12 [Example 1-6]	2000 to 10000
CCSc1nc(-c2ccc(OC)c(OC)c2)cc2nc(C)cn12 [Example 1-8]	< 500
CCSc1nc(-c2ccc(SC)cc2)cc2nccn12 [Example 1-12]	500 to 2000
CCSc1nc(-c2ccc3c(c2)OCCO3)cc2nccn12 [Example 1-13]	500 to 2000
CCSc1nc(-c2ccc(C)c(S(=O)(=O)N3CCN(CCO)CC3)c2)cc2nccn12 [Example 2-1]	500 to 2000
CCSc1nc(-c2ccc(OC)c(S(=O)(=O)N3CCN(CCO)CC3)c2)cc2nccn12 [Example 2-3]	< 500
CCSc1nc(-c2ccc(SC)c(S(=O)(=O)N3CCN(CCO)CC3)c2)cc2nccn12 [Example 2-4]	500 to 2000
CCSc1nc(-c2ccc(C)c(S(=O)(=O)NCCO)c2)cc2nccn12 [Example 2-5]	< 500
CCSc1nc(-c2ccc(OCc3ccc(OC)cc3)c(OC)c2)cc2nccn12 [Example 3-3]	500 to 2000
CCNC(=O)Oc1ccc(-c2cc3nccn3c(SCC)n2)cc1OC [Example 3-9]	500 to 2000
CCSc1nc(-c2ccc(OC)c(OCc3ccccc3)c2)cc2nccn12 [Example 4-1]	500 to 2000
CCSc1nc(-c2ccc(OC)c(OCC3CCCCO3)c2)cc2nccn12 (stereo not drawn) [Example 4-5]	500 to 2000
CCNC(=O)Oc1cc(-c2cc3nccn3c(SCC)n2)ccc1OC [Example 4-8]	< 500
CCSc1nc(-c2ccc(OCCCN3CCOCC3)c(OC)c2)cc2nccn12 [Example 5-1]	< 500

SMILES	IC50 [nM]
CCSc1nc(-c2ccc(OC)c(OCCCN3CCN(C)CC3)c2)cc2nccn12 [Example 5-4]	500 to 2000
CCSc1nc(-c2ccc(OC)c(OCCCN3CC[C@H](N(C)C)C3)c2)cc2nccn12 [Example 5-5]	500 to 2000
CCSc1nc(-c2ccc(OC)c(OCCCN3CCCCC3)c2)cc2nccn12 [Example 5-6]	500 to 2000
CCSc1nc(-c2ccc(OCCCN3CCCCC3)c(OC)c2)cc2nccn12 [Example 5-7]	< 500
CCSc1nc(-c2ccc(OCCCN3CCN(C)CC3)c(OC)c2)cc2nccn12 [Example 5-8]	< 500
CCSc1nc(-c2ccc(OCCCN3CCSCC3)c(OC)c2)cc2nccn12 [Example 5-9]	< 500
CCSc1nc(-c2ccc(OC)c(OCCCN3CCSCC3)c2)cc2nccn12 [Example 5-10]	500 to 2000
CCSc1nc(-c2ccc(OC)c(OCCCN3CCOCC3)c2)cc2nccn12 [Example 5-11]	500 to 2000
CCSc1nc(-c2ccc(OC)c(OCCN3CCOCC3)c2)cc2nccn12 [Example 5-12]	500 to 2000
CCSc1nc(-c2ccc(OCCCN3CCC(C(N)=O)CC3)c(OC)c2)cc2nccn12 [Example 5-13]	< 500
CCSc1nc(-c2ccc(OCCN3CC(C)OC(C)C3)c(OC)c2)cc2nccn12 (stereo not drawn) [Example 5-14]	< 500
CCOCCOc1ccc(-c2cc3nccn3c(SCC)n2)cc1OCCOCC [Example 6-2]	500 to 2000
CCSc1nc(-c2cccc(N)c2)cc2nccn12 [Example 8, 3-(5-Ethylsulfanyl-imidazo[1,2-c]pyrimidin-7-yl)-phenylamine]	< 500
CCSc1nc(-c2cccnc2)cc2nccn12 [Example 8-2]	2000 to 10000
CCSc1nc(-c2cccs2)cc2nccn12 [Example 8-3]	500 to 2000
CCSc1nc(-c2ccsc2)cc2nccn12 [Example 8-5]	500 to 2000
CCSc1cc(-c2cccc([N+](=O)[O-])c2)cc2nccn12 [Example 8-6]	500 to 2000
